From patent US11731968B2, “Tricyclic protein kinase inhibitors for promoting liver regeneration or reducing or preventing hepatocyte death” (HEPAREGENIX GMBH, priority 2018, dated 2023)

Experiments:
MKK4 = target: T1, MKK4 (Homo sapiens, UniProt P45985); experiment: KINOMEscan competition binding assay, MKK4 potency; conditions: compound concentration 100 nM; lower numbers indicate stronger binding
T1 construct: S84/D399; host or cells: HEK-293
T1 sequence (P45985 84-399): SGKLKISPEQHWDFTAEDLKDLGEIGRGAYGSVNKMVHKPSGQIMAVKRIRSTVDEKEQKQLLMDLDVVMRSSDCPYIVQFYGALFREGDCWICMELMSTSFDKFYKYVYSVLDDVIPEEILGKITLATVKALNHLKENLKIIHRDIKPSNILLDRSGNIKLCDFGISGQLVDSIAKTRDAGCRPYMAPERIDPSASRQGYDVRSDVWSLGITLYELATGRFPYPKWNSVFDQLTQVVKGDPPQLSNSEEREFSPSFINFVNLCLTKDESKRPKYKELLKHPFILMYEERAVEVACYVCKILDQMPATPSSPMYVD
Description: (§1) The assay was performed by combining three components: DNA-tagged kinase; immobilized ligand; and a test compound. The ability of the test compound to compete with the immobilized ligand was measured via quantitative PCR of the DNA tag. The technology is described in detail in Fabian, M. A. et al., A small molecule-kinase interaction map for clinical kinase inhibitors. Nat.
(§2) For investigation of the affinity to MKK4, MKK7 and JNK1, the kinases were produced in HEK-293 cells and subsequently tagged with DNA for qPCR detection. […] The liganded beads were blocked with excess biotin and washed with blocking buffer (SEABLOCK™ (Pierce), 1% BSA, 0.05% TWEEN®20, 1 mM DTT) to remove unbound ligand and to reduce nonspecific binding. […] All reactions were performed in polystyrene 96-well plates in a final volume of 0.135 mL. […] The kinase concentration in the eluates was measured by qPCR.
(§3) The test compounds were provided as 10 mM stock solutions. The test solutions at indicated final concentrations were prepared at DiscoverX.

JNK1 = target: T2, JNK1 (Homo sapiens, UniProt P45983); experiment: KINOMEscan competition binding, selectivity against off-target JNK1 (PoC ratio JNK1/MKK4); conditions: compound concentration 100 nM
T2 construct: M1/Q384; host or cells: HEK-293
Description: as §1, §2, §3

MKK7 = target: T3, MKK7 (Homo sapiens, UniProt O14733); experiment: KINOMEscan competition binding, selectivity against off-target MKK7 (PoC ratio MKK7/MKK4); conditions: compound concentration 100 nM
T3 construct: M1/R419; host or cells: HEK-293
T3 sequence (O14733 1-419): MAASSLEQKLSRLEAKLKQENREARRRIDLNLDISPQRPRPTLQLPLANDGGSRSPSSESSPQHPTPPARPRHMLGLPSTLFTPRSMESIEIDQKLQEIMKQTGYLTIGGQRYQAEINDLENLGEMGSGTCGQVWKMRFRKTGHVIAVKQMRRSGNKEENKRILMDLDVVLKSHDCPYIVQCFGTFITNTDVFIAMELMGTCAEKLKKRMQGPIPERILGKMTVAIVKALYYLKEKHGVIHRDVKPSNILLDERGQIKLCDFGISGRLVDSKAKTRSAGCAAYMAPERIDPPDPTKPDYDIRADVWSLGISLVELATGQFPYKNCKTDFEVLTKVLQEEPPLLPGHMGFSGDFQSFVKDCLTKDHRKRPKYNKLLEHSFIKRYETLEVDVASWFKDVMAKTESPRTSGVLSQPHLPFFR
Description: as §1, §2, §3

BRaf = BRaf (Homo sapiens, UniProt P15056); experiment: KINOMEscan competition binding, selectivity against off-target BRaf (PoC ratio BRaf/MKK4); conditions: compound concentration 100 nM
Description: as §1, §3

Chain of BRaf (P15056 whole entry): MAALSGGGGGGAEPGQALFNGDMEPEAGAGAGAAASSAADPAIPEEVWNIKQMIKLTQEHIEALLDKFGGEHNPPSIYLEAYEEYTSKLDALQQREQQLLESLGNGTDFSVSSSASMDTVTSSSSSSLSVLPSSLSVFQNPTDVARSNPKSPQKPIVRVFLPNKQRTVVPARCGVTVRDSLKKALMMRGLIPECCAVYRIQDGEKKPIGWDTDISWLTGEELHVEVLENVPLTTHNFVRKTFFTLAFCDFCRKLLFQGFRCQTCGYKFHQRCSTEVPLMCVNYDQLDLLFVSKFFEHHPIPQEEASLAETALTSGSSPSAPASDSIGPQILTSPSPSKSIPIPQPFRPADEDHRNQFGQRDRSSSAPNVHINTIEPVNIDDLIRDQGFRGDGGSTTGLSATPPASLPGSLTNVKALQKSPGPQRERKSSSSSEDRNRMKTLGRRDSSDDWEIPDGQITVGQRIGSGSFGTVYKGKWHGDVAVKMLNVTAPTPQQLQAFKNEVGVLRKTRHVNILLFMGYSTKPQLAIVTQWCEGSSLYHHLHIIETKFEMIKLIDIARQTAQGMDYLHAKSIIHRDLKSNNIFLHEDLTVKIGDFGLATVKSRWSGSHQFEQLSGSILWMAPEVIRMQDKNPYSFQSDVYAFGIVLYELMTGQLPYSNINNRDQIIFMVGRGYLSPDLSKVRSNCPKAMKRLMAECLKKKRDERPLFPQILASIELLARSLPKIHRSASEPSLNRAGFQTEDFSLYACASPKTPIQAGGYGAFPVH
T2 sequence (P45983 1-384 isoform P45983-2): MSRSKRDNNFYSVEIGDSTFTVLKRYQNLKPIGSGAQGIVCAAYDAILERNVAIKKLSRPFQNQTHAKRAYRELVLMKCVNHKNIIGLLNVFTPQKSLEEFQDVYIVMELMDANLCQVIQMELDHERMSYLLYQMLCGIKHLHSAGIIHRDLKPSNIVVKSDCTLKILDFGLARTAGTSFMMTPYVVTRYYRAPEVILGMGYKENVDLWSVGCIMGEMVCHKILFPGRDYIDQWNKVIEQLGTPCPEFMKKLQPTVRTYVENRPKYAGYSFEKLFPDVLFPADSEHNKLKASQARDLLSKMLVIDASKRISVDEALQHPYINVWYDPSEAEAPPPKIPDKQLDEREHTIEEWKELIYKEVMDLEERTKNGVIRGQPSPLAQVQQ

Row | Compound | MKK4 residual percent of control binding (PoC) (MKK4) | Selectivity vs. JNK1, ratio PoC(JNK1)/PoC(MKK4) (JNK1) | Selectivity vs. MKK7, ratio PoC(MKK7)/PoC(MKK4) (MKK7) | Selectivity vs. BRaf, ratio PoC(BRaf)/PoC(MKK4) (BRaf)
1 | CCCS(=O)(=O)Nc1ccc(F)c(C(=O)c2ccc3[nH]c4ncc(-c5ccc(S(N)(=O)=O)cc5)cc4c3c2)c1F [Example 4b] | + + | +++ (PoC(JNK1)/PoC(MKK4) ≥ 30 = “+++”) | +++ (PoC(MKK7)/PoC(MKK4) ≥ 30 = “+++”) | +++ (PoC(BRaf)/PoC(MKK4) ≥ 30 = “+++”)
2 | CS(=O)(=O)Nc1ccc(F)c(C(=O)c2ccc3[nH]c4ncc(-c5ccc(S(N)(=O)=O)cc5)cc4c3c2)c1F [Example 4j] | + + + | +++ (PoC(JNK1)/PoC(MKK4) ≥ 30 = “+++”) | +++ (PoC(MKK7)/PoC(MKK4) ≥ 30 = “+++”) | +++ (PoC(BRaf)/PoC(MKK4) ≥ 30 = “+++”)
3 | CCCS(=O)(=O)Nc1ccc(F)c(C(=O)c2ccc3[nH]c4ncc(-c5ccc(C(N)=O)cc5)cc4c3c2)c1F [Example 4e] | + + + | +++ (PoC(JNK1)/PoC(MKK4) ≥ 30 = “+++”) | +++ (PoC(MKK7)/PoC(MKK4) ≥ 30 = “+++”) | +++ (PoC(BRaf)/PoC(MKK4) ≥ 30 = “+++”)
4 | CCCS(=O)(=O)Nc1ccc(F)c(C(=O)c2ccc3[nH]c4ncc(-c5ccncc5)cc4c3c2)c1F [Example 4a] | + + + | +++ (PoC(JNK1)/PoC(MKK4) ≥ 30 = “+++”) | +++ (PoC(MKK7)/PoC(MKK4) ≥ 30 = “+++”) | +++ (PoC(BRaf)/PoC(MKK4) ≥ 30 = “+++”)
5 | CCCS(=O)(=O)Nc1ccc(F)c(C(=O)c2ccc3[nH]c4ncc(-c5ccc(-c6nnn[nH]6)cc5)cc4c3c2)c1F [Example 4f] | + + | +++ (PoC(JNK1)/PoC(MKK4) ≥ 30 = “+++”) | +++ (PoC(MKK7)/PoC(MKK4) ≥ 30 = “+++”) | +++ (PoC(BRaf)/PoC(MKK4) ≥ 30 = “+++”)

More lines, now with the values ahead:

Row | MKK4 residual percent of control binding (PoC) (MKK4) | Selectivity vs. JNK1, ratio PoC(JNK1)/PoC(MKK4) (JNK1) | Selectivity vs. MKK7, ratio PoC(MKK7)/PoC(MKK4) (MKK7) | Selectivity vs. BRaf, ratio PoC(BRaf)/PoC(MKK4) (BRaf) | Compound
6 | + + + | +++ (PoC(JNK1)/PoC(MKK4) ≥ 30 = “+++”) | +++ (PoC(MKK7)/PoC(MKK4) ≥ 30 = “+++”) | +++ (PoC(BRaf)/PoC(MKK4) ≥ 30 = “+++”) | CS(=O)(=O)Nc1c(F)ccc(C(=O)c2ccc3[nH]c4ncc(Cl)cc4c3c2)c1F [Example 9, N-(3-(3-chloro-9H-pyrido[2,3-b]indole-6-carbonyl)-2,6-difluorophenyl)methanesulfonamide]
7 | + (10 ≤ PoC < 30 = “+”) | +++ (PoC(JNK1)/PoC(MKK4) ≥ 30 = “+++”) | +++ (PoC(MKK7)/PoC(MKK4) ≥ 30 = “+++”) | +++ (PoC(BRaf)/PoC(MKK4) ≥ 30 = “+++”) | CCCS(=O)(=O)Nc1cccc(C(=O)c2ccc3[nH]c4ncc(Cl)cc4c3c2)c1F [Example 8, N-(3-(3-chloro-9H-pyrido[2,3-b]indole-6-carbonyl)-2-fluorophenyl)propane-1-sulfonamide]
8 | + + + | +++ (PoC(JNK1)/PoC(MKK4) ≥ 30 = “+++”) | +++ (PoC(MKK7)/PoC(MKK4) ≥ 30 = “+++”) | +++ (PoC(BRaf)/PoC(MKK4) ≥ 30 = “+++”) | CCCS(=O)(=O)Nc1ccc(F)c(C(=O)c2ccc3[nH]c4ncc(-c5ccc(N)nc5)cc4c3c2)c1F [Example 7, N-(3-(3-(6-aminopyridin-3-yl)-9H-pyrido[2,3-b]indole-6-carbonyl)-2,4-difluorophenyl)propane-1-sulfonamide]
9 | + + + | +++ (PoC(JNK1)/PoC(MKK4) ≥ 30 = “+++”) | +++ (PoC(MKK7)/PoC(MKK4) ≥ 30 = “+++”) | +++ (PoC(BRaf)/PoC(MKK4) ≥ 30 = “+++”) | CCS(=O)(=O)Nc1ccc(F)c(C(=O)c2ccc3[nH]c4ncc(-c5ccc(S(N)(=O)=O)cc5)cc4c3c2)c1F [Example 4k]
10 | + + + | +++ (PoC(JNK1)/PoC(MKK4) ≥ 30 = “+++”) | +++ (PoC(MKK7)/PoC(MKK4) ≥ 30 = “+++”) | +++ (PoC(BRaf)/PoC(MKK4) ≥ 30 = “+++”) | CCCS(=O)(=O)Nc1ccc(F)c(C(=O)c2ccc3[nH]c4ncc(-c5ccc(C(=O)O)cc5)cc4c3c2)c1F [Example 4n]
11 | + + + | +++ (PoC(JNK1)/PoC(MKK4) ≥ 30 = “+++”) | +++ (PoC(MKK7)/PoC(MKK4) ≥ 30 = “+++”) | +++ (PoC(BRaf)/PoC(MKK4) ≥ 30 = “+++”) | CCCS(=O)(=O)Nc1ccc(F)c(C(=O)c2ccc3[nH]c4ncc(-c5ccc(OCC(O)CO)cc5)cc4c3c2)c1F (centres unmarked) [Example 4m]
